US20060057696A1, “Sugar chain synthases” (priority 2002, published 2006)

Tests used:
Assay type in all cases: biochemical
[1] = biological target: T1, PA-mST8Sia VI (mouse ST8Sia VI) (Mus musculus, UniProt Q8K4T1); assay: Sialyltransferase activity of PA-mST8Sia VI toward acceptor substrates; settings: for Relative rate (%) Mouse ST8SiaVI: incorporation with Fetuin taken as 100, substrate 0.5 mg/ml glycolipids, 1 mg/ml glycoproteins, monosaccharides and oligosaccharides
T1 construct: amino acids 26-398 in the case of mouse ST8Sia VI; signal peptide of mouse immunoglobulin IgM (N); made in house; host or cells: COS-7 cells, transient expression of pcDSA-mST8Sia VI; protein recovered from medium on IgG-Sepharose
T1 sequence (Q8K4T1 26-398): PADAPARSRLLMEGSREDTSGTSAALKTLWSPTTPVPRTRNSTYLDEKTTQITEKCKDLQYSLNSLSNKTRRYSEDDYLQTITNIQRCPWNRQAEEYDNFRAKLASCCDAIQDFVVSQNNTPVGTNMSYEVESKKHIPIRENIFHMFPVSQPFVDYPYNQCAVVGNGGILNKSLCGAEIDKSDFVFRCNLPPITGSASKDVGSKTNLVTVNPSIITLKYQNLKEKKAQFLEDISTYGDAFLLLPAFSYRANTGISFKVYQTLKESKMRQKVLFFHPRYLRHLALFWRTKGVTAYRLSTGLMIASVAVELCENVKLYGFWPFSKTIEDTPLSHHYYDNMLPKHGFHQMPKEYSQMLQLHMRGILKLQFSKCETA
Protocol: Using each expression vector and lipofectamine (Invitrogen), transient expression was carried out in COS-7 cells (Kojima, N. et al. (1995) FEBS Lett. 360, 1-4). The proteins of the present invention secreted from the cells into which each expression vector had been introduced were named as PA-mST8Sia VI (mouse) and PA-hST8Sia VI (human). PA-mST8Sia VI and PA-hST8Sia VI were adsorbed to IgG-Sepharose (Amersham Pharmacia Biotech), and were then recovered from medium. Sialyltransferase activity was measured as follows according to the method of Lee et al. (Lee, Y.-C. et al. (1999) J. Biol. Chem. 274, 11958-11967). A reaction solution (10 μl) containing 50 mM MES buffer (pH 6.0), 1 mM MgCl2, 1 mM CaCl2, 0.5% Triton CF-54, 100 μM CMP-[^14C]-NeuAc, a glycoconjugate (which was added at 0.5 mg/ml in the case of glycolipids, and at 1 mg/ml in the case of glycoproteins or oligosaccharides), and a PA-mST8Sia VI or PA-hST8Sia VI suspension, was incubated at 37° C. for 3 to 20 hours. Thereafter, in the case of glycolipids, the reaction product was purified with a C-18 column (Sep-Pak Vac 100 mg; Waters) and the purified product was used as a sample, and in the case of oligosaccharides or glycoproteins, the reaction product was directly used as a sample. Thus, the obtained samples were subjected to analysis. In the case of oligosaccharides or glycolipids, the sample was spotted on a silica gel 60 HPTLC plate (Merck), and was then developed with a developing solvent consisting of ethanol:pyridine:n-butanol:water:acetic acid=100:10:10:30:3 (for oligosaccharides), a developing solvent consisting of 1-propanol:ammonia water:water=6:1:2.5 (for oligosaccharides), or a developing solvent consisting of chloroform:methanol: 0.02% CaCl2=55:45:10 (for glycolipids). In the case of glycoproteins, analysis was carried out by SDS-polyacrylamide gel electrophoresis. The obtained radioactivities were visualized with a BAS2000 radio image analyzer (Fuji Film) and then quantified.

[2] = biological target: T2, PA-mST6Gal II (mouse ST6Gal II) (Mus musculus, UniProt Q76K27, R48S); assay: Sialyltransferase activity of PA-mST6Gal II toward acceptor substrates; settings: PA-mST6Gal II; incorporation with Galβ1,4GlcNAc taken as 100; 0.5 mg/ml glycolipids, 1 mg/ml glycoproteins and oligosaccharides
T2 construct: amino acids 31-524 in the case of mouse ST6Gal II; signal peptide of mouse immunoglobulin IgM (N); made in house; host or cells: COS-7 cells, transient expression of pcDSA-mST6Gal II; protein recovered from medium on IgG-Sepharose
T2 sequence (Q76K27 31-524 R48S): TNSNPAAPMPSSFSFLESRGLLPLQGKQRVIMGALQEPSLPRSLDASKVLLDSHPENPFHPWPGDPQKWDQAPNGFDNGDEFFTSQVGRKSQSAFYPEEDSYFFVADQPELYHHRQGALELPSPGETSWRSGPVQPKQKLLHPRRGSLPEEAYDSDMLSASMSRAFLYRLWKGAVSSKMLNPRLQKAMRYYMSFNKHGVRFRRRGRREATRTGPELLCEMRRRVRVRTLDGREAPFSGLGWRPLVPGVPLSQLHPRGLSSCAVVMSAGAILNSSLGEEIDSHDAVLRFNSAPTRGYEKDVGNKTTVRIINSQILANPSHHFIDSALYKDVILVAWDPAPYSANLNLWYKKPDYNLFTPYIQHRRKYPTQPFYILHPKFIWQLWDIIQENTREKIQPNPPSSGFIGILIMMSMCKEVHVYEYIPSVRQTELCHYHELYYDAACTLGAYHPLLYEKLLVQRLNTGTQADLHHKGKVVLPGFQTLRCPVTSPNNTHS
Protocol: (§1) Using each expression vector and lipofectamine (Invitrogen), transient expression was carried out in COS-7 cells (Kojima, N. et al. (1995) FEBS Lett. 360, 1-4). The proteins of the present invention secreted from the cells into which each expression vector had been introduced were named as PA-hST6Gal II (human) and PA-mST6Gal II (mouse). PA-hST6Gal II and PA-mST6Gal II were adsorbed to IgG-Sepharose (Amersham Pharmacia Biotech), and were then recovered from medium. Sialyltransferase activity was measured as follows according to the method of Lee et al. (Lee, Y.-C. et al. (1999) J Biol. Chem. 274, 11958-11967). A reaction mixture (10 μl) containing 50 mM MES buffer (pH 6.0), 1 mM MgCl2, 1 mM CaCl2, 0.5% Triton CF-54, 100 μM CMP-[^14C]-NeuAc, a substrate sugar chain (which was added at 0.5 mg/ml in the case of glycolipids, and at 1 mg/ml in the case of glycoproteins or oligosaccharides), and a PA-hST6Gal II or PA-mST6Gal II suspension, was incubated at 37° C. for 3 to 20 hours. Thereafter, in the case of glycolipids, the reaction product was purified with a C-18 column (Sep-Pak Vac 100 mg; Waters) and the purified product was used as a sample. In the case of oligosaccharides or glycoproteins, the reaction product was directly used as a sample. Thus, the obtained sample was subjected to analysis. In the case of oligosaccharides or glycolipids, the sample was spotted on a silica gel 60 HPTLC plate (Merck), and it was then developed with a developing solvent consisting of 1-propanol:ammonia water:water=6:1:2.5 (for oligosaccharides), or a developing solvent consisting of chloroform:methanol: 0.02% CaCl2=55:45:10 (for glycolipids). In the case of glycoproteins, analysis was carried out by SDS-polyacrylamide gel electrophoresis. The obtained radioactivities were visualized with a BAS2000 radio image analyzer (Fuji Film) and then quantified.

[3] = biological target: T3, PA-hST6Gal II (human ST6Gal II) (Homo sapiens, UniProt Q96JF0); assay: Sialyltransferase activity of PA-hST6Gal II toward acceptor substrates; settings: PA-hST6Gal II; incorporation with Galβ1,4GlcNAc taken as 100; 0.5 mg/ml glycolipids, 1 mg/ml glycoproteins and oligosaccharides
T3 construct: amino acids 33-529 in the case of human ST6Gal II; signal peptide of mouse immunoglobulin IgM (N); made in house; host or cells: COS-7 cells, transient expression of pcDSA-hST6Gal II; protein recovered from medium on IgG-Sepharose
T3 sequence (Q96JF0 33-529): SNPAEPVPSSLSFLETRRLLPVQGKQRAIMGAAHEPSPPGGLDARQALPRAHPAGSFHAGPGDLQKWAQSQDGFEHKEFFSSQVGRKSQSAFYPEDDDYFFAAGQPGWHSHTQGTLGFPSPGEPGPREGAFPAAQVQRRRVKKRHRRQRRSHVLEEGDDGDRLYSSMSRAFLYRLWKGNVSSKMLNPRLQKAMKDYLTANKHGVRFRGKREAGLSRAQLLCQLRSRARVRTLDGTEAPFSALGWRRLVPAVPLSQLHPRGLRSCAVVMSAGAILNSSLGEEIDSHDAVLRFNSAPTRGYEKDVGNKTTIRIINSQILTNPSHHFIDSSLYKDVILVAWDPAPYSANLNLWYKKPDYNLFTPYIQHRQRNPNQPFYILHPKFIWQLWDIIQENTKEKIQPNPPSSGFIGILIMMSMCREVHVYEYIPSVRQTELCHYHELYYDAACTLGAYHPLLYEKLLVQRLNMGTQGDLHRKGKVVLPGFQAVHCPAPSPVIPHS
Protocol: as §1

human ST6Gal I = biological target: T4, human ST6Gal I (Homo sapiens, UniProt P15907); assay: Sialyltransferase activity of human ST6Gal I toward acceptor substrates (comparison); settings: for Relative rate (%) Human ST6Gal I: incorporation with Galβ1,4GlcNAc taken as 100, 0.5 mg/ml glycolipids, 1 mg/ml glycoproteins and oligosaccharides
T4 sequence (P15907 1-406): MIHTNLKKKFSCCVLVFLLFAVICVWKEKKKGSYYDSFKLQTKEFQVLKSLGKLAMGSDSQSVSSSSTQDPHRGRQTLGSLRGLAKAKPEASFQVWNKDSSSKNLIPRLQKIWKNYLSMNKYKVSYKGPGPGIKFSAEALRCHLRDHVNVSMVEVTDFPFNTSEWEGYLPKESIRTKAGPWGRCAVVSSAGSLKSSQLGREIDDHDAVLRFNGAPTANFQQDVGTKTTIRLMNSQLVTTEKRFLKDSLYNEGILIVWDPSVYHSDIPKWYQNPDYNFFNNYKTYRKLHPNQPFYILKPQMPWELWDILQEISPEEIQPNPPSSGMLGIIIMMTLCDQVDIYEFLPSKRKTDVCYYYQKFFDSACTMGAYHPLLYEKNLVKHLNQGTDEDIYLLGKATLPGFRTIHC
Protocol: as §1
In contrast, there were no glycolipids, which could be substrates of both the enzymes, as far as the inventors have examined. The activity of human ST6Gal I on oligosaccharides was also examined for comparison. […] (FIG. 10).

Compound	Relative rate (%) Mouse ST8SiaVI [1]	activity of PA-mST8Sia VI on the substrate (in words) [1]	further results
CC(=O)NC1C(O)OC(CO)C(OC2OC(CO)C(O)C(OC3(C(=O)O)CC(O)C(NC(C)=O)C(C(O)C(O)CO)O3)C2O)C1O (stereo not shown) [3′-Sialyl-N-acetyllactosamine, NeuAcα2,3Galβ1,4GlcNAc]	411%		
CC(=O)N[C@H]1[C@H]([C@H](O)[C@H](O)CO)O[C@@](O[C@H]2[C@@H](O)[C@@H](CO)OC(O)[C@@H]2O)(C(=O)O)C[C@@H]1O (stereo partly shown) [3′-Sialylgalactose, NeuAcα2,3Gal]	13.9%		
CC(=O)N[C@@H]1[C@@H](O)[C@H](O[C@@H]2O[C@H](CO[C@]3(C(=O)O)C[C@H](O)[C@@H](NC(C)=O)[C@H]([C@H](O)[C@H](O)CO)O3)[C@H](O)[C@H](O)[C@H]2O)[C@@H](CO)O[C@H]1O [6′-Sialyl-N-acetyllactosamine, NeuAcα2,6Galβ1,4GlcNAc]	88.7%		
CC(=O)N[C@H]1[C@H]([C@H](O)[C@H](O)CO)O[C@@](OC[C@H]2OC(O)[C@H](O)[C@@H](O)[C@H]2O)(C(=O)O)C[C@@H]1O (stereo partly shown) [6′-Sialylgalactose, NeuAcα2,6Gal]	2.0%		
O=C[C@H](O)[C@@H](O)[C@@H](O)[C@H](O)CO [Galactose]	0%		
CC(=O)N[C@H]1[C@H](O[C@H]2[C@@H](O)[C@@H](CO)O[C@@H](O[C@H]3[C@H](O)[C@@H](O)C(O)O[C@@H]3CO)[C@@H]2O)O[C@H](CO)[C@@H](O[C@@H]2O[C@H](CO)[C@H](O)[C@H](O)[C@H]2O)[C@@H]1O (stereo partly shown) [Lacto-N-neotetraose, Galβ1,4GlcNAcβ1,3Galβ1,4Glc]			Relative rate (%) Mouse ST6Gal II [2]: 128.8%; Relative rate (%) Human ST6Gal II [3]: 86.2%; Relative rate (%) Human ST6Gal I (human ST6Gal I): 101.6%
OC[C@H]1O[C@@H](O[C@H]2[C@H](O)[C@@H](O)C(O)O[C@@H]2CO)[C@H](O)[C@@H](O)[C@H]1O (stereo partly shown) [Lactose, Galβ1,4Glc]			Relative rate (%) Mouse ST6Gal II [2]: 0%; Relative rate (%) Human ST6Gal II [3]: 0%; activity of human ST6Gal I on the substrate (in words) (human ST6Gal I): showed activity; Relative rate (%) Human ST6Gal I (human ST6Gal I): 8.7%
CC(=O)N[C@H]1C(O)O[C@H](CO)[C@H](O)[C@@H]1O (stereo partly shown) [N-Acetylgalactosamine]	0%		
CC(=O)N[C@H]1[C@H]([C@H](O)[C@H](O)CO)OC(O)(C(=O)O)C[C@@H]1O (stereo partly shown) [N-Acetylneuraminic acid]	0%		
NeuAcα2,3Galβ1,4GlcNAcβ1,3Galβ1,4Glcβ1-Cer [2,3-SPG]	3.5%	showed activity	
NeuAcα2,6Galβ1,4GlcNAcβ1,3Galβ1,4Glcβ1-Cer [2,6-SPG]	0.98%	showed activity	

Second part, led by results:

Relative rate (%) Mouse ST8SiaVI [1]	activity of PA-mST8Sia VI on the substrate (in words) [1]	Compound	further results
0%		Galβ1,3GalNAcβ1,4(NeuAcα2,8NeuAcα2,3)Galβ1,4Glcβ1-Cer [GD1b]	
1.0%	showed activity	NeuAcα2,3Galβ1,3GalNAcβ1,4Galβ1,4Glcβ1-Cer [GM1b]	
1.0%	showed activity	NeuAcα2,3Galβ1-Cer [GM4]	
2.6%	showed activity	NeuAcα2,6Galβ1,3GalNAcβ1,4Galβ1,4Glcβ1-Cer [GSC-68]	
